From ChEMBL document CHEMBL4673296 (J Med Chem, 2020)
pIC50: −log10 of the molar value. Active and inactive are the calls of the source. The calls are words filed in the database; no cut-off is given here.

Columns and labels:
[1] = molecular target: T1, Serine/threonine-protein kinase ULK1 (Homo sapiens, UniProt O75385); experiment: Inhibition of recombinant human ULK1 (1-649) expressed in Sf9 cells using myelin basic protein as substrate by ADP-glo assay
T1 sequence (O75385 whole entry): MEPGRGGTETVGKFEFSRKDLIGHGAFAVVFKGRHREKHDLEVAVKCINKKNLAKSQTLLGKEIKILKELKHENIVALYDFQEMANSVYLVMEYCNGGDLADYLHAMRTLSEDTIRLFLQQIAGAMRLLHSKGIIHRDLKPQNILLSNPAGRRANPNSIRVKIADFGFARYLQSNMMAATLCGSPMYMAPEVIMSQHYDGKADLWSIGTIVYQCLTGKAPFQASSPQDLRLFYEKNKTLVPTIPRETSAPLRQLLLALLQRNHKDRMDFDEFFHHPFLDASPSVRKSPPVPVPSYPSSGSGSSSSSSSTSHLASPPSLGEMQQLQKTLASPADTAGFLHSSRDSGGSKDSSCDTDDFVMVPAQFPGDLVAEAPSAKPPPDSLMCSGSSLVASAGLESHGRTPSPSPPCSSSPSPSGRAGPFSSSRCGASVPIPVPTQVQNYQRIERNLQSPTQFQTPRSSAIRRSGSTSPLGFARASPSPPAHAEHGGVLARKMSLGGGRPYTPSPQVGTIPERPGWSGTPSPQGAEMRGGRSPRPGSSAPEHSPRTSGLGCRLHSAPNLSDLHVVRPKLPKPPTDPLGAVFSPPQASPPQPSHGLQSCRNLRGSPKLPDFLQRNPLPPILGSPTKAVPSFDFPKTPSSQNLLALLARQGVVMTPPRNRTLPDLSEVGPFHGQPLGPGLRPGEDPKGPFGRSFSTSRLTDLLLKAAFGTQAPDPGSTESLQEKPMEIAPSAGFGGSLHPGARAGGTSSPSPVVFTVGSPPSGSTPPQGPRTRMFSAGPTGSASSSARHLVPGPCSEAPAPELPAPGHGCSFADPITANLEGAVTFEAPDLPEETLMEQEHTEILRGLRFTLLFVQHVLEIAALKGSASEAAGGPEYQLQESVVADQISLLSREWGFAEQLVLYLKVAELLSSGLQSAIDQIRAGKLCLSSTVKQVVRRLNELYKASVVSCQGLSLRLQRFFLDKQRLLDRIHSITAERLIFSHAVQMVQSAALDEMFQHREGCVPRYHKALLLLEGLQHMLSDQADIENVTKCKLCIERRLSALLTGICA

[2] = molecular target: T1, Serine/threonine-protein kinase ULK1; experiment: Inhibition of ULK1 (unknown origin) expressed in HEK293T cells incubated for 2 hrs by NanoBRET assay; type: cell-based
MDA-MB-468 [3] = experiment: cells; details: Homo sapiens, MDA-MB-468, 72 h
Description: Cytotoxicity against human MDA-MB-468 cells measured after 72 hrs by Celltiter-Glo assay

[4] = Apparent permeability of the compound across apical side to basolateral side in human Caco2 cells; type: ADME, cell-based; details: Caco-2
[5] = molecular target: T2, Serine/threonine-protein kinase ULK1 (Homo sapiens) (UniProt O75385); experiment: Inhibition of Myc-tagged ULK1 (unknown origin) expressed in HEK293T cells cotransfected with wild-type Flag tagged Beclin-1 assessed as decrease in pBeclin1 Ser15 at 10 uM measured after 1 hr by Western blot analysis; type: cell-based
T2 sequence (whole entry): T1 sequence (O75385 whole entry)

[6] = molecular target: T3, Serine/threonine-protein kinase ULK2 (Homo sapiens, UniProt Q8IYT8); experiment: Inhibition of ULK2 (unknown origin) expressed in HEK293T cells incubated for 2 hrs by NanoBRET assay; type: cell-based
T3 sequence (Q8IYT8 whole entry): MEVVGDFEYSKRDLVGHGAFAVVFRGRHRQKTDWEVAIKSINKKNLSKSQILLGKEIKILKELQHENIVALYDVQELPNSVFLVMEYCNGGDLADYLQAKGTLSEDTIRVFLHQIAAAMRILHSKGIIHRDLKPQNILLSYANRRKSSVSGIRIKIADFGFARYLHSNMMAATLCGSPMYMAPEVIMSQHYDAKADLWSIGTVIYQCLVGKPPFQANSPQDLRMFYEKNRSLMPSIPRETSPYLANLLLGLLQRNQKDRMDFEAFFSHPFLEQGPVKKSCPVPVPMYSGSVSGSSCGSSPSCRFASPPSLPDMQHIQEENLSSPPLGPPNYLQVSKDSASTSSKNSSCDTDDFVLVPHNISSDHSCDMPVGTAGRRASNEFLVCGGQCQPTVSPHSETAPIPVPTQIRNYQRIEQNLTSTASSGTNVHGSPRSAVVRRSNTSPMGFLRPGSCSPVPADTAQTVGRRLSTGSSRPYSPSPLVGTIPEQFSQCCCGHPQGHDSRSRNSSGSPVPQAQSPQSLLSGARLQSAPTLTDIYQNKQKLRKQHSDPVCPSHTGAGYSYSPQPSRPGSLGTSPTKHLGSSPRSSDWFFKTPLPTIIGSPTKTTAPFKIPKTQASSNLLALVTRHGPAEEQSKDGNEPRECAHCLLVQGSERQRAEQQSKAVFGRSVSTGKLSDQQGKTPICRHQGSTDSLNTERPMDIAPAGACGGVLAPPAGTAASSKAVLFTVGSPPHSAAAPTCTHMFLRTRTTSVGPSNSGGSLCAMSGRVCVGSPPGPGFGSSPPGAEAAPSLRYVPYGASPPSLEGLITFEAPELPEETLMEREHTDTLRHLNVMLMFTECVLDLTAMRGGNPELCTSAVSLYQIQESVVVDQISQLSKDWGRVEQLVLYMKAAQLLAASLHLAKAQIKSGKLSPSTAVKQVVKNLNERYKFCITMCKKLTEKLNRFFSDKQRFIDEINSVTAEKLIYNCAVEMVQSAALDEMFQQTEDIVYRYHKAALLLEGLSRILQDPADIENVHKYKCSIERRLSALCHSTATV

[7] = molecular target: T2, Serine/threonine-protein kinase ULK1 (Homo sapiens); experiment: Inhibition of Myc-tagged ULK1 (unknown origin) expressed in HEK293T cells cotransfected with wild-type Flag tagged Vps34 assessed as decrease in pVPS34 Ser249 at 10 uM measured after 1 hr by Western blot analysis relative to control; type: cell-based
[8] = molecular target: T3, Serine/threonine-protein kinase ULK2; experiment: Inhibition of recombinant human ULK2 (1 to 478 residues) expressed in Sf9 cells using myelin basic protein as substrate by ADP-glo assay
[9] = Apparent permeability of the compound across basolateral side to apical side in human Caco2 cells; type: ADME, cell-based; details: Caco-2
[10] = Efflux ratio of apparent permeability from basolateral side to apical side over apical side to basolateral side in human Caco2 cells; type: ADME, cell-based; details: Caco-2
MDA-MB-468 [11] = experiment: Reduction in autophagosome accumulation in human MDA-MB-468 cells at 10 uM by transmission electron microscopic analysis; type: functional, cell-based
[12] = Inhibition of starvation-induced autophagic flux in human MDA-MB-468 cells expressing tandem-labelled mCherryEGFP-LC3 chimeric protein at 10 uM measured after 18 hrs in EBSS media by flow cytometry (Rvb >90%); type: functional

For `FC(F)(F)c1cnc(Nc2ccc3nn[nH]c3c2)nc1NC1CC1`, the pIC50 [1] was 8.22 and the pIC50 [2] was 5.93.

Work on `O=C(Nc1ccc(Nc2ncc(C(F)(F)F)c(NC3CC3)n2)cc1)C1CC1` yielded a pIC50 [1] of 7.89 and a pIC50 [2] of 5.88.

Work on `O=C(C1CC1)N(C(=O)C1CC1)c1ccc(Nc2ncc(C(F)(F)F)c(NC3CC3)n2)cc1` yielded a pIC50 [1] of 7.52 and a pIC50 [2] of 5.77.

Work on `NC(=O)c1cccc2cn(-c3ccc([C@@H]4CCCNC4)cc3)nc12` [NIRAPARIB] yielded a pIC50 (MDA-MB-468 [3]) of 5.12.

In the case of `Nc1ccc(Nc2ncc(C(F)(F)F)c(NC3CC3)n2)cc1`, the Papp A→B [4] was > 10 ×10⁻⁶ cm/s, the inhibition [5] was “Active” and the pIC50 [6] was 5.77. For the same compound, the pIC50 [1] was 7.70, the inhibition [7] was 70% and the pIC50 [8] was 5.88. For the same compound, the pIC50 [2] was 6.17, the Papp B→A [9] was > 10 ×10⁻⁶ cm/s and the efflux ratio [10] was < 2.

With `FC(F)(F)c1cnc(Nc2ccc3[nH]ccc3c2)nc1NC1CC1` the pIC50 [1] was 7.64 and the pIC50 [2] was 5.01.

`CCN1CCOc2cc(Nc3ncc(C(F)(F)F)c(NC4CC4)n3)cnc21` gave a pIC50 [1] of 7.51 and a pIC50 [2] of 5.92.

For `Oc1ccccc1Nc1ncc(C(F)(F)F)c(NC2CC2)n1`, the Papp A→B [4] was > 10 ×10⁻⁶ cm/s and the Papp B→A [9] was > 10 ×10⁻⁶ cm/s.

For `COc1cncc(Nc2ncc(C(F)(F)F)c(NC3CC3)n2)c1`, the Papp A→B [4] was > 10 ×10⁻⁶ cm/s, the inhibition [5] was “Active” and the pIC50 [6] was 5.72. For the same compound, the inhibition [7] was 70%, the pIC50 [8] was 6.16 and the Papp B→A [9] was > 10 ×10⁻⁶ cm/s.

For `FC(F)(F)c1cnc(Nc2ccc3c(c2)OCO3)nc1NC1CC1`, the pIC50 [1] was 7.68 and the pIC50 [2] was < 5.00.

With `FC(F)(F)c1cnc(Nc2ccc3c(c2)OCCCO3)nc1NC1CC1` the Papp A→B [4] was > 10 ×10⁻⁶ cm/s, the pIC50 [1] was 8.15 and the pIC50 [2] was 5.80. For the same compound, the Papp B→A [9] was > 10 ×10⁻⁶ cm/s and the efflux ratio [10] was < 2.

For `FC(F)(F)c1cnc(Nc2cnc3[nH]ccc3c2)nc1NC1CCC1`, the pIC50 [1] was 7.77 and the pIC50 [2] was < 5.00.

With `FC(F)(F)c1cnc(Nc2cnc3[nH]ccc3c2)nc1NC1CC1` the pIC50 [1] was 7.54 and the pIC50 [2] was 5.72.

Compound `CNc1nc(Nc2cnc3[nH]ccc3c2)ncc1C(F)(F)F` has a pIC50 [1] of 7.47 and a pIC50 [2] of 5.44.

In the case of `FC(F)(F)c1cnc(Nc2ccc3ncoc3c2)nc1NC1CC1`, the Papp A→B [4] was > 10 ×10⁻⁶ cm/s, the inhibition [5] was “Active” and the pIC50 [6] was 5.37. The pIC50 [1] was 7.72, the inhibition [7] was 70% and the pIC50 [8] was 5.92. The pIC50 [2] was 5.99, the Papp B→A [9] was > 10 ×10⁻⁶ cm/s and the efflux ratio [10] was < 2.

For `FC(F)(F)c1cnc(Nc2ccc3c(c2)OCCO3)nc1NC1CC1`, the pIC50 [1] was 7.85 and the pIC50 [2] was 5.35.

With `FC(F)(F)c1cnc(Nc2ccc3nc[nH]c3c2)nc1NC1CC1` the Papp A→B [4] was > 10 ×10⁻⁶ cm/s, the inhibition [5] was “Active” and the pIC50 [6] was 6.15. The inhibition [7] was 70%, the pIC50 [8] was 6.14 and the Papp B→A [9] was > 10 ×10⁻⁶ cm/s.

For `O=C1CCCc2cc(Nc3ncc(C(F)(F)F)c(NC4CC4)n3)ccc21`, the pIC50 [1] was 8.52 and the pIC50 [2] was 5.87.

With `Nc1nc(Nc2ccc3c(c2)OCO3)ncc1C(F)(F)F` the pIC50 [1] was 6.64 and the pIC50 [2] was < 5.00.

With `FC(F)(F)c1cnc(Nc2ccc3ncccc3c2)nc1NC1CC1` the Papp A→B [4] was > 10 ×10⁻⁶ cm/s, the inhibition [5] was “Active” and the pIC50 [6] was 5.78. It also gave a pIC50 [1] of 8.30, an inhibition [7] of 70% and a pIC50 [8] of 6.15. The pIC50 [2] was 6.13, the Papp B→A [9] was > 10 ×10⁻⁶ cm/s and the efflux ratio [10] was < 2.

Compound `FC(F)(F)c1cnc(Nc2ccnnc2)nc1NC1CC1` has a pIC50 [1] of 7.40 and a pIC50 [2] of 5.79.

For `FC(F)(F)c1cnc(Nc2cnc3ccccc3c2)nc1NC1CC1`, the pIC50 [1] was 7.80 and the pIC50 [2] was < 5.00.

With `CNC(=O)c1ccccc1Oc1nc(Nc2cc(OC)c(OC)c(OC)c2)ncc1Br` the inhibition (MDA-MB-468 [11]) was “Active”, the pIC50 [6] was 5.34 and the inhibition at 10 µM [12] was 10%. It also gave a pIC50 [8] of 5.61.

With `FC1(F)Oc2ccc(Nc3ncc(C(F)(F)F)c(NC4CC4)n3)cc2O1` the pIC50 [1] was 7.38 and the pIC50 [2] was < 5.00.
